Measurements taken from PubChem BioAssay AID1963830 (Molecular Pharmacology Branch, DTP, NCI, 2024).

Tested on: 922993-354-T-J3-PDC complex spheroid viability
Assay: Anticancer human tumor 922993-354-T-J3-PDC patient-derived endometrial carcinoma cell line growth inhibition [POLQ]
Details: for IC50: curve of first compound; for viability, T/C: stronger effect = lower value
Experimental: Multicellular complex tumor spheroid response to Polymerase (POL) inhibitors (novobiocin, ART-558, RP6685) in combination with a variety of drugs and investigational agents in selected tumor cell lines
The POL inhibitors (novobiocin, ART-558, and RP6685) were evaluated both individually and in combination with standard of care and investigational anticancer small molecules within a complex spheroid model of solid tumors. . Complex spheroids include a stromal component modeled by human endothelial cells (HUVEC) and fibroblasts modeled by human mesenchymal stem cells (MSCs). The concentration ranges selected for each drug and investigational agent were based upon clinically achievable concentrations if the clinical Cmax of the agent was known.
Compounds. The drugs and investigational agents: novobiocin (NSC847541), ART-558 (NSC835418), RP-6685 (NSC848927), peposertib (NSC802822), ceralasertib (NSC780249), elimusertib (NSC800525), camonsertib (NSC841442), AZD-1390 (NSC803789), olaparib (NSC753686), talazoparib (NSC767125), rucaparib (NSC756644), sotorasib (NSC818433), MRTX-1133 (NSC836407), SN-38 (NSC673596), topotecan (NSC609699), epotoside (NSC141540), doxorubicin (NSC123127), gemcitabine (NSC613327), 5-fluorouracil (NSC19893), paclitaxel (NSC125973), vemurafenib (NSC761431), MSA-2 (NSC828583), SN-011 (NSC837082), adavosertib (NSC754352), prexasertib (NSC758257), carboplatin (NSC241240) and oxaliplatin (NSC266046), were obtained from the National Cancer Institute (NCI) Developmental Therapeutics Program Chemical Repository (21). The FDA-approved anticancer drug set is available from the Developmental Therapeutics Program at https://dtp.cancer.gov/organization/dscb/obtaining/. […] The stock solutions were prepared in dimethyl sulfoxide (DMSO, Sigma-Aldrich, St. Louis, MO, cat. D2650), except for the platinum compounds which were prepared in saline (Quality Biological, Gaithersburg, MD, cat. 114-055-101), at 800-fold the tested concentration and stored at -70 degrees C prior to their use. All drugs and investigational agents were tested over a range starting from a high concentration at or near the clinical Cmax and decreasing in half-log increments. If the clinical Cmax for an agent had not been determined, the highest concentration tested was 10 microM, except for SN-38, which was tested at a high concentration of 1 microM.
Cell Culture. All cells were maintained in an incubator at 37 degrees C and 5% CO2 with 95% humidity. The PDC lines were cultured according to standard operating procedures established by the NCI PDMR (https://pdmr.cancer.gov). Table 3 of the manuscript, lists the cell lines along with the number of the three cell types plated to form the mct-spheroids and media for tumor cell growth. After thawing, all PDC lines, except 997537-175-T-J1-PDC and 415267-285-R-J2-PDC, were cultured in Matrigel-coated flasks prepared with a working solution of 1X Ham's F-12 nutrient mix, without supplementation (Thermo Fisher Scientific, cat. 11765054), 100 U/mL penicillin-streptomycin (Thermo Fisher Scientific, cat. 15140122), and 2.5% Matrigel (Corning Inc., Corning, NY, cat. 354248) for the first three passages. The two PDC lines 997537-175-T-J1-PDC and 415267-285-R-J2-PDC were cultured on uncoated flasks. The 857933-349-R-J2-PDC line was cultured in 6C/Colon 1B media containing advanced DMEM/F-12 (Thermo Fisher Scientific, cat. 12634028), 10 mM HEPES (Thermo Fisher Scientific, cat. 15630080), 1X GlutaMAX supplement (Thermo Fisher Scientific, cat. 35050061), 0.1 mg/mL primocin (InvivoGen, San Diego, CA, cat. ant-pm-2), 10% defined fetal bovine serum, heat inactivated (HyClone Laboratories Inc., Logan, UT, cat. SH30070.03HI), 50% L-WRN conditioned media (ATCC, cat. CRL-3276), 1.25 mM N-Acetyl-L-cysteine (Sigma-Aldrich, cat. A9165), 10 mM nicotinamide (Sigma-Aldrich, cat. N0636), 1X B-27 supplement (Thermo Fisher Scientific, cat. 17504044), 1X N-2 supplement (Thermo Fisher Scientific, cat. […]

[1] = second compound 0.0316 µM, first compound 0.0316 µM
[2] = second compound 0.0316 µM, first compound 0.1 µM
[3] = second compound 0.0316 µM, first compound 0.316 µM
[4] = second compound 0.0316 µM, first compound 1 µM
[5] = second compound 0.0316 µM, first compound 3.16 µM
[6] = second compound 0.0316 µM, first compound 10 µM
[7] = second compound 0.1 µM, first compound 0.0316 µM
[8] = second compound 0.1 µM, first compound 0.1 µM
[9] = second compound 0.1 µM, first compound 0.316 µM
[10] = second compound 0.1 µM, first compound 1 µM
[11] = second compound 0.1 µM, first compound 3.16 µM
[12] = second compound 0.1 µM, first compound 10 µM
[13] = second compound 0.316 µM, first compound 0.0316 µM
[14] = second compound 0.316 µM, first compound 0.1 µM
[15] = second compound 0.316 µM, first compound 0.316 µM
[16] = second compound 0.316 µM, first compound 1 µM
[17] = second compound 0.316 µM, first compound 3.16 µM
[18] = second compound 0.316 µM, first compound 10 µM
[19] = second compound 1 µM, first compound 0.0316 µM
[20] = second compound 1 µM, first compound 0.1 µM
[21] = second compound 1 µM, first compound 0.316 µM
[22] = second compound 1 µM, first compound 1 µM
[23] = second compound 1 µM, first compound 3.16 µM
[24] = second compound 1 µM, first compound 10 µM
[25] = second compound 3.16 µM, first compound 0.0316 µM
[26] = second compound 3.16 µM, first compound 0.1 µM
[27] = second compound 3.16 µM, first compound 0.316 µM
[28] = second compound 3.16 µM, first compound 1 µM
[29] = second compound 3.16 µM, first compound 3.16 µM
[30] = second compound 3.16 µM, first compound 10 µM
[31] = second compound 10 µM, first compound 0.0316 µM
[32] = second compound 10 µM, first compound 0.1 µM
[33] = second compound 10 µM, first compound 0.316 µM
[34] = second compound 10 µM, first compound 1 µM
[35] = second compound 10 µM, first compound 3.16 µM
[36] = second compound 10 µM, first compound 10 µM
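Further: spheroids exposed to the agents for one week.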
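Wherever viability, T/C is given: 100% = DMSO vehicle control wells.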

CC1COCCN1c1cc(C2(O)CC3CCC(C2)O3)c2cnn(-c3ccn[nH]3)c2n1 (stereo unspecified) + Nc1ccc(C#CCN(C(=O)Cc2ncc(C(F)(F)F)cc2C(F)(F)F)c2ccc(F)cc2)nn1
IC50 (second compound 0.0316 µM): 2.08 µM | IC50 (second compound 0.1 µM): 2.16 µM | IC50 (second compound 0.316 µM): 2.27 µM | IC50 (second compound 1 µM): 2.37 µM | IC50 (second compound 3.16 µM): 1.31 µM | IC50 (second compound 10 µM): 0.453 µM | viability, T/C [1]: 102% | viability, T/C [2]: 105% | viability, T/C [3]: 89.1% | viability, T/C [4]: 74.9% | viability, T/C [5]: 35.3% | viability, T/C [6]: 21.3% | viability, T/C [7]: 108% | viability, T/C [8]: 107% | viability, T/C [9]: 98.7% | viability, T/C [10]: 76.7% | viability, T/C [11]: 36.8% | viability, T/C [12]: 16.2% | viability, T/C [13]: 106% | viability, T/C [14]: 102% | viability, T/C [15]: 92.9% | viability, T/C [16]: 75.8% | viability, T/C [17]: 38.9% | viability, T/C [18]: 20.7% | viability, T/C [19]: 105% | viability, T/C [20]: 94.3% | viability, T/C [21]: 89.2% | viability, T/C [22]: 74.7% | viability, T/C [23]: 40.9% | viability, T/C [24]: 14.9% | viability, T/C [25]: 97.8% | viability, T/C [26]: 101% | viability, T/C [27]: 80.4% | viability, T/C [28]: 59.3% | viability, T/C [29]: 26% | viability, T/C [30]: 12.2% | viability, T/C [31]: 99.4% | viability, T/C [32]: 90.9% | viability, T/C [33]: 62.4% | viability, T/C [34]: 22.9% | viability, T/C [35]: 19.4% | viability, T/C [36]: 10.9%

CCc1cc2c(N3CCc4c(cc(Cn5ccnc5)cc4-c4cn(C)nc4C(F)(F)F)C3=O)ccnc2c(OC)n1 + Nc1ccc(C#CCN(C(=O)Cc2ncc(C(F)(F)F)cc2C(F)(F)F)c2ccc(F)cc2)nn1
IC50 (second compound 0.0316 µM): > 10 µM | IC50 (second compound 0.1 µM): > 10 µM | IC50 (second compound 0.316 µM): > 10 µM | IC50 (second compound 1 µM): > 10 µM | IC50 (second compound 3.16 µM): > 10 µM | IC50 (second compound 10 µM): > 10 µM | viability, T/C [1]: 104% | viability, T/C [2]: 103% | viability, T/C [3]: 105% | viability, T/C [4]: 107% | viability, T/C [5]: 107% | viability, T/C [6]: 102% | viability, T/C [7]: 106% | viability, T/C [8]: 102% | viability, T/C [9]: 107% | viability, T/C [10]: 108% | viability, T/C [11]: 106% | viability, T/C [12]: 101% | viability, T/C [13]: 105% | viability, T/C [14]: 102% | viability, T/C [15]: 103% | viability, T/C [16]: 105% | viability, T/C [17]: 103% | viability, T/C [18]: 99.6% | viability, T/C [19]: 105% | viability, T/C [20]: 105% | viability, T/C [21]: 102% | viability, T/C [22]: 108% | viability, T/C [23]: 105% | viability, T/C [24]: 94.3% | viability, T/C [25]: 102% | viability, T/C [26]: 99.5% | viability, T/C [27]: 104% | viability, T/C [28]: 99% | viability, T/C [29]: 106% | viability, T/C [30]: 97.5% | viability, T/C [31]: 99.2% | viability, T/C [32]: 102% | viability, T/C [33]: 99.4% | viability, T/C [34]: 96.6% | viability, T/C [35]: 100% | viability, T/C [36]: 91%

COc1cc2cc(C(=O)CCC(=O)O)sc2cc1OC + Nc1ccc(C#CCN(C(=O)Cc2ncc(C(F)(F)F)cc2C(F)(F)F)c2ccc(F)cc2)nn1
IC50 (second compound 0.0316 µM): > 10 µM | IC50 (second compound 0.1 µM): > 10 µM | IC50 (second compound 0.316 µM): > 10 µM | IC50 (second compound 1 µM): > 10 µM | IC50 (second compound 3.16 µM): > 10 µM | IC50 (second compound 10 µM): > 10 µM | viability, T/C [1]: 104% | viability, T/C [2]: 105% | viability, T/C [3]: 108% | viability, T/C [4]: 102% | viability, T/C [5]: 109% | viability, T/C [6]: 84.6% | viability, T/C [7]: 108% | viability, T/C [8]: 105% | viability, T/C [9]: 103% | viability, T/C [10]: 95.6% | viability, T/C [11]: 104% | viability, T/C [12]: 78.9% | viability, T/C [13]: 102% | viability, T/C [14]: 103% | viability, T/C [15]: 98.3% | viability, T/C [16]: 97.7% | viability, T/C [17]: 102% | viability, T/C [18]: 82.1% | viability, T/C [19]: 102% | viability, T/C [20]: 99.6% | viability, T/C [21]: 108% | viability, T/C [22]: 102% | viability, T/C [23]: 103% | viability, T/C [24]: 81% | viability, T/C [25]: 99% | viability, T/C [26]: 102% | viability, T/C [27]: 98.5% | viability, T/C [28]: 104% | viability, T/C [29]: 105% | viability, T/C [30]: 84% | viability, T/C [31]: 94.6% | viability, T/C [32]: 95.2% | viability, T/C [33]: 97.7% | viability, T/C [34]: 95% | viability, T/C [35]: 104% | viability, T/C [36]: 78.8%
